Common to all, as to format: biochemical
Test [1] concerns the target T1, 320 wild-type protein kinases (Homo sapiens, UniProt O15111).
T1 sequence (O15111 1-745): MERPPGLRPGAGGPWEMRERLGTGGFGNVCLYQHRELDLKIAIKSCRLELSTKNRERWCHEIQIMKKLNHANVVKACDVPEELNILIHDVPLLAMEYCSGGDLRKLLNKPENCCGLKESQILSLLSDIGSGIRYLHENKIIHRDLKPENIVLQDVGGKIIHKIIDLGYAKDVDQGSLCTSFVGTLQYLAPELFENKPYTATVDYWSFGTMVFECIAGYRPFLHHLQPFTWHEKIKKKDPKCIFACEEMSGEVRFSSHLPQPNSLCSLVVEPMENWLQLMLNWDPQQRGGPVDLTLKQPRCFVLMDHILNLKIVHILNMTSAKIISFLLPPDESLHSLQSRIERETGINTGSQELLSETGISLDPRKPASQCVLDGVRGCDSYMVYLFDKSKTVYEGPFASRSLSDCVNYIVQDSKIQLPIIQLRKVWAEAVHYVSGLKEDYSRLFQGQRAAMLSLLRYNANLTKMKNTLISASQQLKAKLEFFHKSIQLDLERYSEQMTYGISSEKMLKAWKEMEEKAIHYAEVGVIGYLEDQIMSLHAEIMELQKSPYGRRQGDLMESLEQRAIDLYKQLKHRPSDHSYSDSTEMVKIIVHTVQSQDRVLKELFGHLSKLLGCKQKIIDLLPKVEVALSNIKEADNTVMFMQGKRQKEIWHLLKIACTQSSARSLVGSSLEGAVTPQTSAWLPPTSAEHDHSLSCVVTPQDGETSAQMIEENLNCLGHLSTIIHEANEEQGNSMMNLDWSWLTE
The conditions noted are these: IKK-alpha, singlicate. The text has this:
(§1) Table S4. Profiling of two compounds at two concentrations against 320 wild-type protein kinases; singlicate measurement; Residual activities (% of control).

For test [2], the target named is T2, 320 wild-type protein kinases (Homo sapiens, UniProt P42681).
T2 sequence (P42681 1-527): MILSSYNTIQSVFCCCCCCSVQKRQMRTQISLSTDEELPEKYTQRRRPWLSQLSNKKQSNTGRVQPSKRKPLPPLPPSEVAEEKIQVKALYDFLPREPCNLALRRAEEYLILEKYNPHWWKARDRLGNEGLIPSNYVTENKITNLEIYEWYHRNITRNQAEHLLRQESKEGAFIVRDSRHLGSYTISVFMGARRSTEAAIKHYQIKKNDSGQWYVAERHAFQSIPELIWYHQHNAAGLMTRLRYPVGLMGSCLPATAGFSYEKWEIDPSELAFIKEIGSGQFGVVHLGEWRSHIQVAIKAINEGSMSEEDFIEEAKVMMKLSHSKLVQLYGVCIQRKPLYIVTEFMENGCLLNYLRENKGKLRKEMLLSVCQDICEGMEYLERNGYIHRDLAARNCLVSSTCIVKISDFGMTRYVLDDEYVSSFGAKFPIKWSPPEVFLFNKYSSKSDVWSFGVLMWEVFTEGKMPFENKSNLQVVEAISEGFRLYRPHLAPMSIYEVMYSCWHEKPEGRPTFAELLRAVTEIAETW
The conditions noted are these: kinase TXK, singlicate.
Excerpt: as §1

For test [3], the target named is 320 wild-type protein kinases (Homo sapiens, UniProt Q86V86). The conditions noted are these: singlicate.
Excerpt: as §1

The target of test [4] is 320 wild-type protein kinases (Homo sapiens, UniProt Q13464). The conditions noted are these: kinase ROCK1, singlicate.
Excerpt: as §1

Test [5] has as its target 320 wild-type protein kinases (Homo sapiens, UniProt O00311). The conditions noted are these: singlicate.
Excerpt: as §1

For test [6], the target named is T3, 320 wild-type protein kinases (Homo sapiens, UniProt P41743).
T3 sequence (P41743 1-596): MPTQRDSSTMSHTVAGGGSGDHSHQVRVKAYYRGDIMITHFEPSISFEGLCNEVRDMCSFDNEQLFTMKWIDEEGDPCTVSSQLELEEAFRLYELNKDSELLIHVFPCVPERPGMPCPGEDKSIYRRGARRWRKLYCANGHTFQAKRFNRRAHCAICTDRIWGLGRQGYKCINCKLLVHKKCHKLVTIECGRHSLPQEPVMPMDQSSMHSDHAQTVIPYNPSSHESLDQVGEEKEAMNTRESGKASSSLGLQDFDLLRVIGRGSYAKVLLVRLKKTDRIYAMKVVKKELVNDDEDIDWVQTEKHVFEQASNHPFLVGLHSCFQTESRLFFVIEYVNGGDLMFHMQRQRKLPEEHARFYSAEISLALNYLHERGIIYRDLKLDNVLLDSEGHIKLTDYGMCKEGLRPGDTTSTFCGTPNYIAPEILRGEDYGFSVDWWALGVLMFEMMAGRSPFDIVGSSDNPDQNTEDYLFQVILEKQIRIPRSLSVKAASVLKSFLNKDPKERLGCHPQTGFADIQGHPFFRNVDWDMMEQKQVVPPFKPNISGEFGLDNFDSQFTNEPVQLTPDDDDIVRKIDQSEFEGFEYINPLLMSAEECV
As to conditions: PKC-iota, singlicate.
Excerpt: as §1

The target in test [7] is 320 wild-type protein kinases (Homo sapiens, UniProt P07332). The conditions noted are these: FES, singlicate.
Excerpt: as §1

Each structure is given as a SMILES string. Where two headings read alike, the source gives them in different places.

Sequence of 320 wild-type protein kinases (Homo sapiens, UniProt Q13464) (Q13464 whole entry): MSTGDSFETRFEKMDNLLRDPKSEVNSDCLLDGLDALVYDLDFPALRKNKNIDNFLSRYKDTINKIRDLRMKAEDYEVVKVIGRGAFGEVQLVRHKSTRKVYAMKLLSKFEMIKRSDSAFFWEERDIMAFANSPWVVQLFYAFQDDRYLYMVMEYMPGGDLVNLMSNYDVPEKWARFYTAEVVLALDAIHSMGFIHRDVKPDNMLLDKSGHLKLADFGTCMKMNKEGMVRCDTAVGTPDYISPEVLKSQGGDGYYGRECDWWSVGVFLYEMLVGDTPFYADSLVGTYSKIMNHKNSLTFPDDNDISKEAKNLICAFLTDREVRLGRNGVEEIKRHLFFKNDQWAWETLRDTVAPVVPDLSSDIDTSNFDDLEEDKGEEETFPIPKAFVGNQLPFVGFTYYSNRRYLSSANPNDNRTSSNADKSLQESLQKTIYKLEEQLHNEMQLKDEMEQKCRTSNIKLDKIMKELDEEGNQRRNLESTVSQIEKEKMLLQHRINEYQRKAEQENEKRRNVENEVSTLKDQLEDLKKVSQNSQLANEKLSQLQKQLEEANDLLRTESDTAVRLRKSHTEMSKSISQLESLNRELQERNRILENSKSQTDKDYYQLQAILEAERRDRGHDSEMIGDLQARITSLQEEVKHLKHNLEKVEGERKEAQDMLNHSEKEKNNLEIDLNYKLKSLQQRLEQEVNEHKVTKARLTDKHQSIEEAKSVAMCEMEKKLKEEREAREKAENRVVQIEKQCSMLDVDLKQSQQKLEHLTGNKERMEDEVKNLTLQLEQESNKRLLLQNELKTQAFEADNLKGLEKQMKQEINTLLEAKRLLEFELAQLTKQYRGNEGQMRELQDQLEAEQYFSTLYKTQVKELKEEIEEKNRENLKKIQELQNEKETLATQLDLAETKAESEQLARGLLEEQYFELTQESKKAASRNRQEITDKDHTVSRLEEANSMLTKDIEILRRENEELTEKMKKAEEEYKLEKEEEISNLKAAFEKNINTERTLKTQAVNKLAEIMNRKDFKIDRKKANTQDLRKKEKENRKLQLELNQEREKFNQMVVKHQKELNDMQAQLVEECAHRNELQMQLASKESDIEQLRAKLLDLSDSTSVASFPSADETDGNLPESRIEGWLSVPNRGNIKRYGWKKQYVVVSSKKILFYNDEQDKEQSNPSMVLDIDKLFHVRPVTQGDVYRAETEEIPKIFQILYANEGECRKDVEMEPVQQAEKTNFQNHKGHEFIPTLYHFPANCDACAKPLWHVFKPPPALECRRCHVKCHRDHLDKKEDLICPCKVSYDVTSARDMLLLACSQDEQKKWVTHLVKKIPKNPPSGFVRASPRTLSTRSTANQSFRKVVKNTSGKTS
Sequence of 320 wild-type protein kinases (Homo sapiens, UniProt O00311) (O00311 whole entry): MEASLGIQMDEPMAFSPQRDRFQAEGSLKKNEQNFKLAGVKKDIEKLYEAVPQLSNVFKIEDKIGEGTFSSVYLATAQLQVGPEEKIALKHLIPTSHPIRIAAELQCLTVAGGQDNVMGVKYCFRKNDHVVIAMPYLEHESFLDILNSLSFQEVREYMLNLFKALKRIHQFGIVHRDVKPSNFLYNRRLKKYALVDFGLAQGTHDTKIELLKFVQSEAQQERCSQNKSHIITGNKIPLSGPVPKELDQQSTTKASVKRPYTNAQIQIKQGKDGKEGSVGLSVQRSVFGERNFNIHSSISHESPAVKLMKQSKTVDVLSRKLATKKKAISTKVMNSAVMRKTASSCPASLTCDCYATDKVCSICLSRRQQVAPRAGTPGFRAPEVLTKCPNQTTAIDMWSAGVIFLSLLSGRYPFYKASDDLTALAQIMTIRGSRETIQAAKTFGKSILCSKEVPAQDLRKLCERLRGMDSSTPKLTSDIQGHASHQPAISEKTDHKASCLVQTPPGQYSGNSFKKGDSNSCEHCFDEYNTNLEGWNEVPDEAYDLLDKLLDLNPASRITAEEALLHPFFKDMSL
Sequence of 320 wild-type protein kinases (Homo sapiens, UniProt P07332) (P07332 whole entry): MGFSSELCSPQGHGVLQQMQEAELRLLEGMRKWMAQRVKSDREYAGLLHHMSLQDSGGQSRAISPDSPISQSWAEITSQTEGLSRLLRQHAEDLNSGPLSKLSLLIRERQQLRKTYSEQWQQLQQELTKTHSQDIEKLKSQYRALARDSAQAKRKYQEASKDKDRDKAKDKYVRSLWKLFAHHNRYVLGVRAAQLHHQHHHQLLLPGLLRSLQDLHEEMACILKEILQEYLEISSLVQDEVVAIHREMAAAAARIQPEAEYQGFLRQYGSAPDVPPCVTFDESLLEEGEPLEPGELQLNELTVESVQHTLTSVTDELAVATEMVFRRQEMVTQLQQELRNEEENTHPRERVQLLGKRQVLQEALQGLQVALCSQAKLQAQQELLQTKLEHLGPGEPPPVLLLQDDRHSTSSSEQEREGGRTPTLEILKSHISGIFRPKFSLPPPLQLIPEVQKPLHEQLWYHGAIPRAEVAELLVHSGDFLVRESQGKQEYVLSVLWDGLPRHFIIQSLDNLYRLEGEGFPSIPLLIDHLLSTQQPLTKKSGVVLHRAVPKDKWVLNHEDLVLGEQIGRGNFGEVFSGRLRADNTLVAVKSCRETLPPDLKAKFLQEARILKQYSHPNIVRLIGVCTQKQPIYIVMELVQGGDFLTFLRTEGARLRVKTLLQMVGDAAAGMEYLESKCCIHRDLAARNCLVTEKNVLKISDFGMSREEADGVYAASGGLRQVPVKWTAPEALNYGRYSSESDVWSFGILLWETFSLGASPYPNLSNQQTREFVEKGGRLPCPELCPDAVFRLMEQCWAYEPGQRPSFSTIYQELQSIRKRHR

As for `C#Cc1cc(Nc2ncnc3cc(OC)c(OC)cc23)ccc1Cl` [Compound 45], the Residual activity in test [1] (1.0E-06 M) was 95 % of control; in test [1] (1.0E-07 M), 106 % of control; in test [3] (PIM3, 1.0E-06 M), 53 % of control; in test [3] (PIM3, 1.0E-07 M) it was 81 % of control; in test [5] (CDC7/DBF4, 1.0E-06 M), 88 % of control; in test [5] (CDC7/DBF4, 1.0E-07 M), 107 % of control. For the same compound, the Residual activity is given as 96 % of control in test [6] (1.0E-06 M), 139 % of control in test [6] (1.0E-07 M), 97 % of control in test [7] (1.0E-06 M) and 107 % of control in test [7] (1.0E-07 M). For the same compound, the figures for the “Residual activity, TXK” value in test [2] (assay conc. 1.0E-06 M) and in test [2] (assay conc. 1.0E-07 M) were 52 % of control and 91 % of control, respectively. Besides, the “Residual activity, ROCK1” value was 83 % of control in test [4] (assay conc. 1.0E-06 M) and 98 % of control in test [4] (assay conc. 1.0E-07 M).

In the case of `C#Cc1cc(Nc2ncnc3cc(I)ccc23)ccc1Cl` [Compound 41], the Residual activity in test [1] (1.0E-06 M) was 100 % of control; in test [1] (1.0E-07 M) it was 109 % of control; in test [3] (PIM3, 1.0E-06 M) it was 83 % of control; in test [3] (PIM3, 1.0E-07 M) it was 81 % of control; in test [5] (CDC7/DBF4, 1.0E-06 M), 90 % of control; in test [5] (CDC7/DBF4, 1.0E-07 M) it was 89 % of control. For the same compound, the Residual activity in test [6] (1.0E-06 M) is reported as 104 % of control; in test [6] (1.0E-07 M), 119 % of control; in test [7] (1.0E-06 M) it was 93 % of control; in test [7] (1.0E-07 M), 118 % of control. For the same compound, the “Residual activity, TXK” value in test [2] (assay conc. 1.0E-06 M) was 79 % of control; in test [2] (assay conc. 1.0E-07 M) it was 90 % of control. The “Residual activity, ROCK1” value in test [4] (assay conc. 1.0E-06 M) is given as 91 % of control; in test [4] (assay conc. 1.0E-07 M) it was 84 % of control.

The values above are taken from PMC9329436, “Optimization of the 4-anilinoquin(az)oline scaffold as epidermal growth factor receptor (EGFR) inhibitors for chordoma utilizing a toxicology profiling assay platform” (Scientific Reports, 2022).
